Source: patent publication US8685957B1 (Cubist Pharmaceuticals, Inc., priority 2012, dated 2014)

Assay: Hygroscopicity experiments by DVS (water vapor sorption)
Assay type: physicochemical
Conditions: relative to amorphous tazobactam arginine and amorphous tazobactam sodium
Method: Analysis by DVS was performed on a VTI SGA-100 water vapor sorption analyser using approximately 18-23 mg of each sample. Each sample was pre-dried at 60° C. for a maximum of 1 hour and then analyzed at 25° C. in 10% relative humidity (RH) steps from 5-95% (adsorption) and then 90-10% RH (desorption). The sample was equilibrated to each humidity level for a maximum of 3 hours or until constant weight was attained. Equilibrium criteria were set at less than 0.0050% weight change within 5 minutes.

For `C[C@]1(Cn2ccnn2)[C@H](C(=O)O)N2C(=O)CC2S1(=O)=O` (stereo partly shown) [Tazobactam arginine polymorph Ia, tazobactam arginine], the hygroscopicity was “low hygroscopicity”.
